Test results as given in US10919877B2, “Multifunctional inhibitors of MEK/PI3K and mTOR/MEK/PI3K biological pathways and therapeutic methods using the same” (THE REGENTS OF THE UNIVERSITY OF MICHIGAN, priority 2016, dated 2021).
Where “and” joins values, the source holds several entries; their conditions need not be identical. Identical values can stand only once. Like-named read-outs stand apart in the source and are kept apart here.

What was measured:
PI3Kα = biological target: T1, PI3Kα (Homo sapiens, UniProt P42336); assay: PI3K subtype enzyme inhibition; type: biochemical
T1 construct: purchased Life Technologies (assay run by the vendor)

PI3Kβ = biological target: T2, PI3Kβ (Homo sapiens, UniProt P42338); assay: PI3K subtype enzyme inhibition; type: biochemical
T2 construct: purchased Life Technologies (assay run by the vendor)

PI3Kγ = biological target: T3, PI3Kγ (Homo sapiens, UniProt P48736); assay: PI3K subtype enzyme inhibition; type: biochemical
T3 construct: purchased Life Technologies (assay run by the vendor)

PI3Kδ = biological target: T4, PI3Kδ (Homo sapiens, UniProt O00329); assay: PI3K subtype enzyme inhibition; type: biochemical
T4 construct: purchased Life Technologies (assay run by the vendor)

MEK1 = biological target: T5, MEK1 (Homo sapiens, UniProt Q02750); assay: In vitro MEK1 inhibition assay (Kinase-Glo luminescent kinase assay); type: biochemical; details: average of three experiments each conducted in duplicate
T5 construct: purchased Sigma-Aldrich
Procedure: In Vitro MEK1 Inhibition Assays.
In vitro MEK1 inhibition activity of inhibitor analogs were determined using Kinase-Glo luminescent kinase assay kits from Promega (WI, USA) per manufacturer's instructions. […] Briefly, series of compound dilutions were added in 96-well plates, followed by MEK1, Erk2, and ATP solutions. Kinase reactions were run at 30° C. for 30 minutes. Equal volumes of Kinase-Glo solution were then added, and reactions were incubated at room temperature for a further 30 minutes. Bioluminescence signals were acquired with an Envision multilabel reader from Perkin Elmer. Assays were conducted in triplicate with various inhibitor concentrations each run in duplicate. IC50 data were calculated using GraphPad Prism software (version 5.0, La Jolla, Calif.).

[1] = system: pAkt in A549 and D54 cells; assay: Cellular PI3K inhibition, Western blot of pAkt in cultured tumor cells; type: cell-based, human; details: 1 hour; for PI3K activity indicated by level of pAKT: cultured A549 cells, Western blot vs DMSO
Procedure: The in vitro MEK1 and PI3K inhibitory activity of these series of compounds was also assessed in cultured tumor cells (D54, A549). Cellular efficacy of MEK1 and PI3K inhibition by inhibitor compounds was measured by changes in phosphorylation of pErk1/2 and pAkt, respectively. […] Cells were incubated in the presence of indicated compounds for 1 hour and lysates probed with specific antibodies against pAKT and pERK 1/2 and compared with vehicle control (DMSO). A549 (FIG. 2A) and D54 (FIG. 2B) cells were treated with inhibitors at the indicated concentrations for 1 hour and subjected to Western blot analysis.
Western Blot Analysis. Cells were seeded in six-well dishes 24 hours prior to treatment and incubated with the respective inhibitor compound solutions for 1 h. Cells were washed with phosphatebuffered saline (PBS) and lysed with NP-40 lysis buffer (1% NP40, 150 mM NaCl, and 25 mM Tris, pH 8.0) supplemented with protease inhibitors (Complete protease inhibitor cocktail, Roche, Basel, Switzerland) and phosphatase inhibitors (PhosSTOP, Roche, Basel, Switzerland). Concentration of protein was determined using Lowry assays (Bio-Rad, Hercules, Calif.), and equal amounts of whole cell protein lysate were loaded in each lane and resolved using 4-12% gradient Bis-Tris gel (Invitrogen, CA). Proteins were transferred to 0.2 μm nitrocellulose membranes (Invitrogen, CA). Membranes were incubated overnight at 4° C. with primary antibodies after blocking, followed by incubation with appropriate horseradish peroxidase (HRP) conjugated secondary antibody at room temperature for 1 hour. ECL-Plus was used to detect the activity of peroxidase according to the manufacturer's protocol (Amersham Pharmacia, Uppsala, Sweden). Antibodies raised against phospho-p44/42 MAPK (Erk1/2) (Thr202/Tyr204), pAKT(5473), phospho-p70 S6K* and total ERK, AKT antibodies were purchased from Cell Signaling Technology (Beverly, Mass., USA), and anti-β actin (conjugated with HRP) was purchased from Abcam (Cambridge, Mass., USA). Secondary HRP antibodies were purchased from Jackson ImmunoResearch (St. Louis, Mo., USA).

mTOR = mTOR (Homo sapiens, UniProt P42345); assay: mTOR enzyme inhibition; type: biochemical
[2] = system: pErk1/2 in A549 and D54 cells; assay: Cellular MEK1 inhibition, Western blot of pErk1/2 in cultured tumor cells; type: cell-based, human; details: A549 and D54 cell lines, 1 hour
Procedure: Western Blot Analysis. […] Cells were washed with phosphatebuffered saline (PBS) and lysed with NP-40 lysis buffer (1% NP40, 150 mM NaCl, and 25 mM Tris, pH 8.0) supplemented with protease inhibitors (Complete protease inhibitor cocktail, Roche, Basel, Switzerland) and phosphatase inhibitors (PhosSTOP, Roche, Basel, Switzerland). […] Proteins were transferred to 0.2 μm nitrocellulose membranes (Invitrogen, CA). Membranes were incubated overnight at 4° C. with primary antibodies after blocking, followed by incubation with appropriate horseradish peroxidase (HRP) conjugated secondary antibody at room temperature for 1 hour. ECL-Plus was used to detect the activity of peroxidase according to the manufacturer's protocol (Amersham Pharmacia, Uppsala, Sweden).

A549 lung tumor cells = assay: Cell viability, AlamarBlue assay; type: cell-based, human; details: dose dependence
D54 glioma cells = assay: Cell viability, AlamarBlue assay; type: cell-based, human; details: dose dependence
ERK1/2 phosphorylation = assay: In vivo MEK1 inhibition in flank D54 and A549 tumor bearing mice (Western blot); details: D54 and A549 tumors; compound 14: 375 mg/kg oral gavage, 2 h
Procedure: Four athymic nude Foxn1nu mice were used to evaluate oncogenic target modulation activity in vivo.
In Vivo Evaluation of Inhibitor Efficacy.
Each injectate contained a total volume of 200 μL of cell suspension in 50% RPMI medium mixed with 50% BD Matrigel basement membrane matrix (Becton, Dickinson and Company, East Rutherford, N.J.). […] Tumor tissues were collected from both vehicle and drug-treated groups and subjected to Western blot analysis as previously described.

Akt phosphorylation = assay: In vivo PI3K inhibition in flank D54 and A549 tumor bearing mice (Western blot); details: D54 and A549 tumors; compound 14: 375 mg/kg oral gavage, 2 h
PI3K = PI3K (Homo sapiens, UniProt P42336); assay: In vitro PI3K inhibition assay (Adapta TR-FRET); type: biochemical; details: average of three experiments each conducted in duplicate
Procedure: In Vitro PI3K Inhibition Assays.
Quantitation of PI3K lipid kinase activity was carried out by Life Technologies (Madison, Wis.) with purified enzyme using the fluorescence-based Adapta TR-FRET assay protocol. Assays were conducted in triplicate with various inhibitor concentrations (0.1 nM to 10 μM).

[3] = system: A375 (melanoma), D54 (glioma), CT26 colorectal cancer, A2058 (melanoma) cell lines; assay: Concurrent inhibition in tumor cell lines (multifunctional inhibitors); type: cell-based
Excerpt: The synthesis of another series of single entity, multifunctional inhibitors achieved by covalent linking of structural analogs of a PI3K inhibitor mTOR inhibitor, and an MEK inhibitor is also disclosed.

[4] = read-out: PI3K Subtype Enzyme Inhibition Data IC50 PI3Kα
[5] = read-out: PI3K Subtype Enzyme Inhibition Data IC50 PI3Kβ
[6] = read-out: PI3K Subtype Enzyme Inhibition Data IC50 PI3Kγ
[7] = read-out: PI3K Subtype Enzyme Inhibition Data IC50 PI3Kδ
[8] = table of additional PI3K inhibitors, read-out: PI3Kα IC50
[9] = table of additional PI3K inhibitors, read-out: PI3Kβ IC50
[10] = table of additional PI3K inhibitors, read-out: PI3Kγ IC50
[11] = table of additional PI3K inhibitors, read-out: PI3Kδ IC50

T4 sequence (O00329 whole entry): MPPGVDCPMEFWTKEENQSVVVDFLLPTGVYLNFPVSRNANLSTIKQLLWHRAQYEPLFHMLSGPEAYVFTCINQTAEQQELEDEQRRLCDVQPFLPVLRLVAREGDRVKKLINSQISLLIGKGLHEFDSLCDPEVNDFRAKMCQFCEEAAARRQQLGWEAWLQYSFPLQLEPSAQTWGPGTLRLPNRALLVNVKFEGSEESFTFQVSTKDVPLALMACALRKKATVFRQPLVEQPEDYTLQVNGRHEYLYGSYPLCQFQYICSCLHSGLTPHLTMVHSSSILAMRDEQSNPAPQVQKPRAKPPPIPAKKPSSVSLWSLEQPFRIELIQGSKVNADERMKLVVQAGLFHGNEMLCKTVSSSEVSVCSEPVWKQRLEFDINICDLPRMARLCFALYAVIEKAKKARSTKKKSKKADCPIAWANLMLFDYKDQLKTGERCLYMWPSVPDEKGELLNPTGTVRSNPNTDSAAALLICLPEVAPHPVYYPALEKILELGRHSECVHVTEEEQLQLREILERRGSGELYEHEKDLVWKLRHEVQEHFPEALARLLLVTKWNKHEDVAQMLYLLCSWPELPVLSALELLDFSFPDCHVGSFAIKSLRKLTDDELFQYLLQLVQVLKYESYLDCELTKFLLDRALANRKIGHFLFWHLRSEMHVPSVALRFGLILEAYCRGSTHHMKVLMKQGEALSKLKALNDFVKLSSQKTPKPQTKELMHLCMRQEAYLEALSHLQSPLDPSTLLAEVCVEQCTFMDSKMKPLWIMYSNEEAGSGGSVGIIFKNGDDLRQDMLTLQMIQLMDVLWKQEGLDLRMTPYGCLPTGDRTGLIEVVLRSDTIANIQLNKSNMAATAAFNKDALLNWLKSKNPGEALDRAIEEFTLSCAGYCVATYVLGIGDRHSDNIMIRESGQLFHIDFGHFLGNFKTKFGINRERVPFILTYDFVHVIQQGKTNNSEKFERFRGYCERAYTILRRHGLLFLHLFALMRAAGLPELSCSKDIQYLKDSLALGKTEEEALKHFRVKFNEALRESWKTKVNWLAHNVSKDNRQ
T4 sequence (P27986 whole entry partner): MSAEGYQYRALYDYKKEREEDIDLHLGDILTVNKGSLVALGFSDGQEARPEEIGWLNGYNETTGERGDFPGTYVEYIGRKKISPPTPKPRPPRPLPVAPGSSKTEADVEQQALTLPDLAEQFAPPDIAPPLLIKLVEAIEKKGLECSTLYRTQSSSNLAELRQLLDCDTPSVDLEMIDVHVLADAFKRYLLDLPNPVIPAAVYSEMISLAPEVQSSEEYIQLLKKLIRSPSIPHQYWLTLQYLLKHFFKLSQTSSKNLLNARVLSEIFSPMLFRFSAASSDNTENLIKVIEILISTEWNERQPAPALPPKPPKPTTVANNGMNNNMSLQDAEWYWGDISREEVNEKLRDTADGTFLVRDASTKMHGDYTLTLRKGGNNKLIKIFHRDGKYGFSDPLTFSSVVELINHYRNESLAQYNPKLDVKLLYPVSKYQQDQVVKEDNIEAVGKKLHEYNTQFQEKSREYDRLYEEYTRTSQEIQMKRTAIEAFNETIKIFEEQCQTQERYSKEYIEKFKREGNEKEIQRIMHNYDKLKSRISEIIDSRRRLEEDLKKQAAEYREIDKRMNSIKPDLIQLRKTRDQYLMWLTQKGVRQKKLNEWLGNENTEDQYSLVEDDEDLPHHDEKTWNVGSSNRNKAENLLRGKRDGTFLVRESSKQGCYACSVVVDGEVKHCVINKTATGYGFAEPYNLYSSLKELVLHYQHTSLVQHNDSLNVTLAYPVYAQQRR
T1 sequence (P42336 whole entry): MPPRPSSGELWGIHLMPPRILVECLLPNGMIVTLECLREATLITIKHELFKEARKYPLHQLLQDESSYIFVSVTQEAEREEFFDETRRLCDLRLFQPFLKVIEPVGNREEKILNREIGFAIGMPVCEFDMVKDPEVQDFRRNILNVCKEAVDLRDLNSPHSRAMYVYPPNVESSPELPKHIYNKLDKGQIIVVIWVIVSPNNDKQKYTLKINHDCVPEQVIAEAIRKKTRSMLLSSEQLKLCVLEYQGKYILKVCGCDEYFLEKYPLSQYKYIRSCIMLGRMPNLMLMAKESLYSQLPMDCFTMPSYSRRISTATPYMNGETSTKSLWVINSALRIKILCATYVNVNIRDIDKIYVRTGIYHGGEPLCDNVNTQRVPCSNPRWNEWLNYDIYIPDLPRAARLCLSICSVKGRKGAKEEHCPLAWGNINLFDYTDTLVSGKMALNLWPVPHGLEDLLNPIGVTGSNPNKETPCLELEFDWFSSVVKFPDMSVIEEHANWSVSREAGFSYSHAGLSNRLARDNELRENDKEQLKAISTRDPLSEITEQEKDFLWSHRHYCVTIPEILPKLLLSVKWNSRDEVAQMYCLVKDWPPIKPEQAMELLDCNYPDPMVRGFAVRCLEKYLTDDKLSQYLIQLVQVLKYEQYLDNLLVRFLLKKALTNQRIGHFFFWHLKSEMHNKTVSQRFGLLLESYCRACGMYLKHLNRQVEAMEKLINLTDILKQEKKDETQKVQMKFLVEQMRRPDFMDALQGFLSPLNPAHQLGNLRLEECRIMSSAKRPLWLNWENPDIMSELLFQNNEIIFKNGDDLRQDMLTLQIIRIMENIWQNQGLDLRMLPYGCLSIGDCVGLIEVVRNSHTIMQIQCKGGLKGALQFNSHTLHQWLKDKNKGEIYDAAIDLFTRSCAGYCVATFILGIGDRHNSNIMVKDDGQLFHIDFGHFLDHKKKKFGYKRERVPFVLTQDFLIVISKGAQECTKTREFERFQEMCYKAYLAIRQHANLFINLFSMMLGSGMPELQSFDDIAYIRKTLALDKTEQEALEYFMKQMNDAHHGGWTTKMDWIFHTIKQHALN
T1 sequence (P27986 whole entry partner): as the sequence (P27986 whole entry partner) above
T3 sequence (P48736 whole entry): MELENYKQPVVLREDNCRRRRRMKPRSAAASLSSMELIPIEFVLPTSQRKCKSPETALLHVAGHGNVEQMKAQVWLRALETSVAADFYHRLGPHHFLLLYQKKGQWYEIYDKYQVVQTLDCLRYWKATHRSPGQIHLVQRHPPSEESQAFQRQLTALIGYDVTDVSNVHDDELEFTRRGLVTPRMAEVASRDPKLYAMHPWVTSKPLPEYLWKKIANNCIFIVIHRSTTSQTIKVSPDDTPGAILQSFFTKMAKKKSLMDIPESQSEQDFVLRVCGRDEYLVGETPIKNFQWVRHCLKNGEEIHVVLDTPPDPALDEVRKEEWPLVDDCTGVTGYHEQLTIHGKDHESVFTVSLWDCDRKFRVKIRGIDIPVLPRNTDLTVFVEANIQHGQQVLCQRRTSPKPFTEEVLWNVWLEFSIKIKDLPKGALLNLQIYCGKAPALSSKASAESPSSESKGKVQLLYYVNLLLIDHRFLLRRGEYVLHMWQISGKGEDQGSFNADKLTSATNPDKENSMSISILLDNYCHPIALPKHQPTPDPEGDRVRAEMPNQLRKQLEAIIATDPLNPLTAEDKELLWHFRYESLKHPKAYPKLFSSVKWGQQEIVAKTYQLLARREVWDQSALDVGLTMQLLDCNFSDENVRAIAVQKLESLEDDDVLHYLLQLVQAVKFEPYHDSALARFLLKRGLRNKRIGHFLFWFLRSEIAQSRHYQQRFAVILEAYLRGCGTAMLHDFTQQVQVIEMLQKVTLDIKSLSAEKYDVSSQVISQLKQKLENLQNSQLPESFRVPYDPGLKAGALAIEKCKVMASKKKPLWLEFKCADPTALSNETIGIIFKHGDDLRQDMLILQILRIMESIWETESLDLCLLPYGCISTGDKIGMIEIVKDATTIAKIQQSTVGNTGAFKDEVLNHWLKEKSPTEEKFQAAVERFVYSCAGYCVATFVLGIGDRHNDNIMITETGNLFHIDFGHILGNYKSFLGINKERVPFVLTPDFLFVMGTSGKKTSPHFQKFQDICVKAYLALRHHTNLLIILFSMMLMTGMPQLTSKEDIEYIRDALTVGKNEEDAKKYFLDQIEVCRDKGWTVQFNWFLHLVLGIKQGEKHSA
T2 sequence (P42338 whole entry): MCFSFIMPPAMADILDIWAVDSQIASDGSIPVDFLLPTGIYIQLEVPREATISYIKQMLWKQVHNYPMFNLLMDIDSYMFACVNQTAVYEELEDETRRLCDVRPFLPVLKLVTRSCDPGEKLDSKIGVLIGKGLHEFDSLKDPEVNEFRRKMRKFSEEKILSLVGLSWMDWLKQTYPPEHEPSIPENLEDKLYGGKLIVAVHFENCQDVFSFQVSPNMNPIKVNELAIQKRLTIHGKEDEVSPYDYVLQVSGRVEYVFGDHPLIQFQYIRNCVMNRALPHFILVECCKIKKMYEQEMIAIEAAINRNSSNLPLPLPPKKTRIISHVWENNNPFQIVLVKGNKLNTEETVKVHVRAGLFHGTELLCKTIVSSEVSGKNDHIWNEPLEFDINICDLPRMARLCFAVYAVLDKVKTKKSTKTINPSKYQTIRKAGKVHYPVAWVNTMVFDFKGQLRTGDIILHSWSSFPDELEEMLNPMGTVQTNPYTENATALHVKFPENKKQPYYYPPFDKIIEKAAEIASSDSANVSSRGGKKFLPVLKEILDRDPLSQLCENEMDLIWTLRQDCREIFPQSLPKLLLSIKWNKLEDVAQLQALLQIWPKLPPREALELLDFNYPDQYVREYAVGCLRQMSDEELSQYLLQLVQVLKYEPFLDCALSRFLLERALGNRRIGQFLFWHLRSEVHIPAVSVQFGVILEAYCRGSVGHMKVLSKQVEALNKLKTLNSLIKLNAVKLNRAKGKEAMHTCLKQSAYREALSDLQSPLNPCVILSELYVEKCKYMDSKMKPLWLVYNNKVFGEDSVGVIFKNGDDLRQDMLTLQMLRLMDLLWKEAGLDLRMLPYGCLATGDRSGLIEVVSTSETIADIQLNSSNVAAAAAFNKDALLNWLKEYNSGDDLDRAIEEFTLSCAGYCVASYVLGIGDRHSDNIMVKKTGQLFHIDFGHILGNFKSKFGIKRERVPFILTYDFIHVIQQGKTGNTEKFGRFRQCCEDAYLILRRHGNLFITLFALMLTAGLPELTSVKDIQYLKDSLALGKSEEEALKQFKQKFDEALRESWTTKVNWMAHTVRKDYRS
T2 sequence (P27986 whole entry partner): as the sequence (P27986 whole entry partner) above

SMILES	IC50 (PI3Kα; [4])	IC50 (PI3Kβ; [5])	IC50 (PI3Kγ; [6])	IC50 (PI3Kδ; [7])	IC50 (PI3Kα; [8])	IC50 (PI3Kβ; [9])	IC50 (PI3Kγ; [10])	IC50 (PI3Kδ; [11])	also measured
CN(CCOCCOCCONC(=O)c1ccc(F)c(F)c1Nc1ccc(I)cc1F)CC[N+](C)(C)CCOCCOCCC(=O)N1CCN(c2nc(N3CCOCC3)nc(-n3c(C(F)F)nc4ccccc43)n2)CC1 [ST-5-05]	39 ± 2 nM	2520 ± 557 nM	2590 ± 660 nM	56 ± 13 nM					
CNC(=O)CCNc1nc(N2CCOCC2)nc(-n2c(C(F)F)nc3ccccc32)n1 [ST-5-21]	20 ± 0.4 nM	431 ± 83 nM	67 ± 2.8 nM	26 ± 4.9 nM	20 ± 0.4 nM	431 ± 83 nM	67 ± 2.8 nM	26 ± 4.9 nM	
O=C(O)CCNc1nc(N2CCOCC2)nc(-n2c(C(F)F)nc3ccccc32)n1 [ST-5-25]	12.4 ± 0.7 nM	787 ± 106 nM	22.3 ± 0.7 nM	60 ± 3.4 nM	12.4 ± 0.7 nM	787 ± 106 nM	22.3 ± 0.7 nM	60 ± 3.4 nM	
CC(=O)N1CCN(c2nc(N3CCOCC3)nc(-n3c(C(F)F)nc4ccccc43)n2)CC1 [ST-5-03]		14.3 ± 2.5 nM	21 ± 1 nM			14.3 ± 2.5 nM	21 ± 1 nM		
NOCCOCCOCCOCCC(=O)N1CCN(c2nc(N3CCOCC3)nc(-n3c(C(F)F)nc4ccccc43)n2)CC1 [ST-167]		214 ± 49 nM	140 ± 6.6 nM			214 ± 49 nM	140 ± 6.6 nM		
FC(F)c1nc2ccccc2n1-c1nc(N2CCNCC2)nc(N2CCOCC2)n1									IC50 (PI3Kβ; mean ± SEM, read-out: PI3K Subtype Inhibition Activity PI3Kβ): 1090 ± 168 nM; IC50 (PI3Kγ; mean ± SEM, read-out: PI3K Subtype Inhibition Activity PI3Kγ): 1870 ± 283 nM
O=C(CNCCONC(=O)c1ccc(F)c(F)c1Nc1ccc(I)cc1F)NCCCCCC(=O)N1CCN(c2nc(N3CCOCC3)nc(-n3c(C(F)F)nc4ccccc43)n2)CC1 [Compound 7, N-(2-((2-((6-(4-(4-(2-(Difluoromethyl)-1H-benzo[d]imidazol-1-yl)-6-morpholino-1,3,5-triazin-2-yl)piperazin-1-yl)-6-oxohexyl)amino)-2-oxoethyl)amino)ethoxy)-3,4-difluoro-2-((2-fluoro-4-iodophenyl)amino)benzamide]									IC50 (MEK1): 0.5 ± 1.2 nM; PI3K activity indicated by level of pAKT [1]: high potency in inhibiting PI3K activity
O=S(=O)(Nc1cc(-c2ccc3ncc(N4CCNCC4)nc3c2)cnc1Cl)c1ccc(F)cc1 [ST-5-27]									IC50 (PI3Kα; read-out: PI3Kα IC50): < 0.495 nM; IC50 (PI3Kβ; read-out: PI3Kβ IC50): 477 ± 0.92 nM; IC50 (PI3Kγ; read-out: PI3Kγ IC50): 514 ± 0.23 nM; IC50 (PI3Kδ; read-out: PI3Kδ IC50): 0.83 ± 0.06 nM; IC50 (mTOR): 5.97 ± 0.27 nM
CC(=O)NCCNc1nc(N2CCOCC2)nc(-n2c(C(F)F)nc3ccccc32)n1 [ST-5-22]	16.6 ± 1.4 nM	199 ± 12 nM	54 ± 1.5 nM	9.5 ± 2.4 nM					
NCCNc1nc(N2CCOCC2)nc(-n2c(C(F)F)nc3ccccc32)n1 [ST-177]	292 ± 31 nM	2120 ± 444 nM	771 ± 63 nM	291 ± 32 nM	292 ± 31 nM	2120 ± 444 nM	771 ± 63 nM	291 ± 32 nM	
O=C(NOCCNCCCCCC(=O)N1CCN(c2nc(N3CCOCC3)nc(-n3c(C(F)F)nc4ccccc43)n2)CC1)c1ccc(F)c(F)c1Nc1ccc(I)cc1F [Compound 9, N-(2-((6-(4-(4-(2-(Difluoromethyl)-1H-benzo[d]imidazol-1-yl)-6-morpholino-1,3,5-triazin-2-yl)piperazin-1-yl)-6-oxohexyl)amino)ethoxy)-3,4-difluoro-2-((2-fluoro-4-iodophenyl)amino)benzamide]									MEK inhibition in cells [2]: most pronounced; PI3K inhibition in cells ([1]; A549 and D54 cell lines, Western blot): most pronounced; PI3K activity indicated by level of pAKT [1]: high potency in inhibiting PI3K activity; cell viability (A549 lung tumor cells): as effective as the combination of ZSTK474 and PD0325901; cell viability (D54 glioma cells): as effective as the combination of ZSTK474 and PD0325901; phosphorylation of ERK1/2 (MEK1 activity) in excised tumor tissue (ERK1/2 phosphorylation): modulation of ERK1/2 and pAkt levels was also achieved; phosphorylation of Akt (PI3K activity) in excised tumor tissue (Akt phosphorylation): modulation of ERK1/2 and pAkt levels was also achieved
CC(=O)N1CCN(c2cnc3ccc(-c4cnc(Cl)c(NS(=O)(=O)c5ccc(F)cc5)c4)cc3n2)CC1 [ST-5-28]									IC50 (PI3Kα; read-out: PI3Kα IC50): < 0.495 nM; IC50 (PI3Kβ; read-out: PI3Kβ IC50): 5.36 ± 1.1 nM; IC50 (PI3Kγ; read-out: PI3Kγ IC50): 0.71 ± 0.2 nM; IC50 (PI3Kδ; read-out: PI3Kδ IC50): < 0.495 nM; IC50 (mTOR): 3.13 ± 0.14 nM
COCCNc1nc(N2CCOCC2)nc(-n2c(C(F)F)nc3ccccc32)n1 [ST-178]	20 ± 3 nM	208 ± 15 nM	64 ± 5 nM	17 ± 1 nM	20 ± 3 nM	208 ± 15 nM	64 ± 5 nM	17 ± 1 nM	
O=C(NOCCNCCCCS(=O)(=O)N1CCN(c2nc(N3CCOCC3)nc(-n3c(C(F)F)nc4ccccc43)n2)CC1)c1ccc(F)c(F)c1Nc1ccc(I)cc1F [Compound 11]									IC50 (MEK1): 56.7 ± 1.3 nM; IC50 (PI3K): 191 to 341 nM and 285 nM
CNCCNc1nc(N2CCOCC2)nc(-n2c(C(F)F)nc3ccccc32)n1 [ST-5-02]	248 ± 24 nM	2900 ± 375 nM	681 ± 90 nM	135 ± 19 nM	248 ± 24 nM	2900 ± 375 nM	681 ± 90 nM	135 ± 19 nM	
OCCNc1nc(N2CCOCC2)nc(-n2c(C(F)F)nc3ccccc32)n1 [ST-187]	9.9 ± 1.2 nM	71 ± 8 nM	54 ± 1 nM	8.1 ± 1.7 nM	9.9 ± 1.2 nM	71 ± 8 nM	54 ± 1 nM	8.1 ± 1.7 nM	
CN(CCOCCOCCONC(=O)c1ccc(F)c(F)c1Nc1ccc(I)cc1F)CCN(C)CCOCCOCCC(=O)N1CCN(c2nc(N3CCOCC3)nc(-n3c(C(F)F)nc4ccccc43)n2)CC1 [ST-180]	39 ± 9 nM	2210 ± 425 nM	717 ± 136 nM	52 ± 1.4 nM					Concurrent inhibition in tumor cell lines [3]: Concurrent inhibition was demonstrated
O=C(NOCCOCCOCCOCCC(=O)N1CCN(c2cnc3ccc(-c4cnc(Cl)c(NS(=O)(=O)c5ccc(F)cc5)c4)cc3n2)CC1)c1ccc(F)c(F)c1Nc1ccc(I)cc1F [ST-182]									IC50 (PI3Kα; read-out: PI3Kα IC50): 2 ± 0.3 nM; IC50 (PI3Kβ; read-out: PI3Kβ IC50): 467 ± 44 nM; IC50 (PI3Kγ; read-out: PI3Kγ IC50): 34.1 ± 3 nM; IC50 (PI3Kδ; read-out: PI3Kδ IC50): 4.22 ± 0.64 nM; IC50 (mTOR): 53.1 ± 2.5 nM
NOCCOCCOCCOCCC(=O)N1CCN(c2cnc3ccc(-c4cnc(Cl)c(NS(=O)(=O)c5ccc(F)cc5)c4)cc3n2)CC1 [ST-5-29]									IC50 (PI3Kα; read-out: PI3Kα IC50): < 0.495 nM; IC50 (PI3Kβ; read-out: PI3Kβ IC50): 1.33 ± 0.59 nM; IC50 (PI3Kγ; read-out: PI3Kγ IC50): 30.2 ± 0.14 nM; IC50 (mTOR): 6.77 ± 0.43 nM
